The assay concerns Escherichia coli strain ATCC25922. Description: standard microdilution assay to determine minimum inhibitory concentrations (MICs). It is filed as cell-based. The note with it: Escherichia coli strain ATCC25922, microdilution. How it is done: The in vitro activity of the compounds of the present invention can be determined. Antimicrobial testing is typically performed to determine the minimum inhibitory concentration (MIC). Minimum inhibitory concentrations (MICs) are determined by the microdilution method in a final volume of 100 μl according to protocols outlined by The Clinical and Laboratory Standards Institute (CLSI). Performance standards for reference strains are assessed within the same experimental design to maintain quality control. See, for example, Clinical Laboratory Standards Institute: Methods for dilution antimicrobial susceptibility tests for bacteria that grow aerobically M7-A8. Approved Standard-Eighth Edition. Wayne, Pa.: CLSI; December 2008; and Clinical Laboratory Standards Institute: Performance Standards for Antimicrobial Susceptibility Testing M100-S20; Approved Standard-Twentieth Edition. Wayne, Pa.: CLSI; June 2010.
The compounds of the present invention were tested for antimicrobial activity. […] The compounds were run against Escherichia coli strain ATCC25922 using a standard microdilution assay to determine minimum inhibitory concentrations (MICs). […] A “N/A” means that data is unavailable. It will be recognized by one skilled in the art that the compounds can be assessed against other bacterial organisms and that the presentation of data for activity against Escherichia coli is illustrative and in no way is intended to limit the scope of the present invention. The compounds of the present invention can be assayed against a range of other microorganisms depending upon the performance activity desired to be gathered. Furthermore, the “+”, “−”, and “N/A” representation and the selection of a cutoff value of 16 micrograms/ml is also illustrative and in no way is intended to limit the scope of the present invention.
(In general: In broth dilution the organism is exposed to a series of concentrations in liquid medium.)
Consider `N=C(N)NCCCNCc1ccc(-n2cc3cc(-c4cc(CCCCN)cc(OC(F)(F)F)c4)[nH]c3nc2=O)cc1F` [Compound 39], for which the “E. coli ATCC25922 MIC” value is given as “+ (a “+” indicates that the compound has an MIC value of 16 micrograms/ml or less)”.
As for `N=C(N)NCCCNCc1ccc(-n2cc3cc(-c4cc(CCCCN)cc(C5CCC5)c4)[nH]c3nc2=O)cc1` [Compound 40], the entry is “+ (a “+” indicates that the compound has an MIC value of 16 micrograms/ml or less)”.
For the compound `CC(=O)Nc1cc(CCCCN)cc(-c2cc3cn(-c4ccc(CNCCCNC(=N)N)cc4)c(=O)nc3[nH]2)c1` [Compound 41], the “E. coli ATCC25922 MIC” value was “+ (a “+” indicates that the compound has an MIC value of 16 micrograms/ml or less)”.
As to `N=C(N)NCCCNCc1ccc(-n2cc3cc(-c4cc(OC(F)(F)F)cc(C(O)CCCN)c4)[nH]c3nc2=O)cc1` (stereo not drawn) [Compound 42], the “E. coli ATCC25922 MIC” value is reported as “+ (a “+” indicates that the compound has an MIC value of 16 micrograms/ml or less)”.
As for `N=C(N)NCCCNCc1ccc(-n2cc3cc(-c4cc(Br)c(CC(O)CCN)c(OC(F)(F)F)c4)[nH]c3nc2=O)cc1` (stereo not drawn) [Compound 43], the entry is “+ (a “+” indicates that the compound has an MIC value of 16 micrograms/ml or less)”.
In the case of `COc1c(CCCCN)cc(-c2cc3cn(-c4ccc(CNCCCNC(=N)N)cc4)c(=O)nc3[nH]2)cc1OC(F)(F)F` [Compound 44], the “E. coli ATCC25922 MIC” value is “+ (a “+” indicates that the compound has an MIC value of 16 micrograms/ml or less)”.
As for `COC(=O)NCCCCc1cc(-c2cc3cn(-c4ccc(CNCCCNC(=N)N)cc4)c(=O)nc3[nH]2)cc(OC(F)(F)F)c1OC` [Compound 45], the entry is “+ (a “+” indicates that the compound has an MIC value of 16 micrograms/ml or less)”; as for `CC(C)c1cc(CCCCN)cc(-c2cc3cn(-c4ccc(CNCCCNC(=N)N)cc4)c(=O)nc3[nH]2)c1` [Compound 46], “+ (a “+” indicates that the compound has an MIC value of 16 micrograms/ml or less)”; as for `NCCCCc1cc(OC(F)(F)F)cc(-c2cc3cn(-c4ccc(CNCCCN/C(N)=N\CCCF)cc4)c(=O)nc3[nH]2)c1` [Compound 47], “+ (a “+” indicates that the compound has an MIC value of 16 micrograms/ml or less)”.
For `CS(=O)(=O)Nc1cc(CCCCN)cc(-c2cc3cn(-c4ccc(CNCCCNC(=N)N)cc4)c(=O)nc3[nH]2)c1` [Compound 48], the “E. coli ATCC25922 MIC” value is recorded as “+ (a “+” indicates that the compound has an MIC value of 16 micrograms/ml or less)”.
For `N=C(N)NCCCNCc1ccc(-n2cc3cc(-c4cc(CCCCN)cc(NC(N)=O)c4)[nH]c3nc2=O)cc1` [Compound 49], the “E. coli ATCC25922 MIC” value is “+ (a “+” indicates that the compound has an MIC value of 16 micrograms/ml or less)”.
Turning to `N=C(N)NCCCNCc1ccc(-n2cc3cc(-c4cc(CCCCN)ccc4OC(F)(F)F)[nH]c3nc2=O)cc1` [Compound 50], the “E. coli ATCC25922 MIC” value was “+ (a “+” indicates that the compound has an MIC value of 16 micrograms/ml or less)”.
For the compound `N=C(N)NCCCNCc1ccc(-n2cc3cc(-c4cc(C(O)CCCN)ccc4Cl)[nH]c3nc2=O)cc1` (stereo not drawn) [Compound 51], the “E. coli ATCC25922 MIC” value is “+ (a “+” indicates that the compound has an MIC value of 16 micrograms/ml or less)”.
For `N=C(N)NCCCNCc1c(F)cc(-n2cc3cc(-c4cc(CCCCN)cc(OC(F)(F)F)c4)[nH]c3nc2=O)cc1F` [Compound 52], the “E. coli ATCC25922 MIC” value is listed as “+ (a “+” indicates that the compound has an MIC value of 16 micrograms/ml or less)”.
As for `N=C(N)NCCCNCc1c(F)cc(-n2cc3cc(-c4cc(CCCCN)ccc4F)[nH]c3nc2=O)cc1F` [Compound 53], the entry is “+ (a “+” indicates that the compound has an MIC value of 16 micrograms/ml or less)”; as for `N=C(N)NCCCNCc1ccc(-n2cc3cc(-c4cc(CCCCN)ccc4F)[nH]c3nc2=O)cc1F` [Compound 54], “+ (a “+” indicates that the compound has an MIC value of 16 micrograms/ml or less)”; as for `N=C(N)NCCCNCc1ccc(-n2cc3cc(-c4cc(CCCCN)cc(-n5ccnn5)c4)[nH]c3nc2=O)cc1` [Compound 55], “+ (a “+” indicates that the compound has an MIC value of 16 micrograms/ml or less)”.
`N=C(N)NCCCCc1cc(-c2cc3cn(-c4ccc(CNCCCNC(=N)N)cc4)c(=O)nc3[nH]2)cc(-n2ccnn2)c1` [Compound 56]: the “E. coli ATCC25922 MIC” value is “+ (a “+” indicates that the compound has an MIC value of 16 micrograms/ml or less)”.
In the case of `Cc1ccc(CCCCN)cc1-c1cc2cn(-c3ccc(CNCCCNC(=N)N)cc3)c(=O)nc2[nH]1` [Compound 57], the “E. coli ATCC25922 MIC” value is on record as “+ (a “+” indicates that the compound has an MIC value of 16 micrograms/ml or less)”.
In the case of `N=C(N)NCCCNCc1ccc(-n2cc3cc(-c4cc(OC(F)(F)F)cc(C(F)CCCN)c4)[nH]c3nc2=O)cc1` (stereo not drawn) [Compound 58], the “E. coli ATCC25922 MIC” value was “+ (a “+” indicates that the compound has an MIC value of 16 micrograms/ml or less)”.
Take `N=C(N)NCCCNCc1ccc(-n2cc3cc(-c4cc(CCCCN)cc(-n5ccnc5)c4)[nH]c3nc2=O)cc1` [Compound 59]: the “E. coli ATCC25922 MIC” value is reported as “+ (a “+” indicates that the compound has an MIC value of 16 micrograms/ml or less)”.
As for `N=C(N)NCCCNCc1ccc(-n2cc3cc(-c4cc(CCCO)cc(OC(F)(F)F)c4)[nH]c3nc2=O)cc1` [Compound 60], the entry is “− (a “−” indicates that the compound has an MIC value greater than 16 micrograms/ml)”.
As to `N=C(N)NCCCNCc1ccc(-n2cc3cc(-c4cc(CCCCN)cc(-c5cccnc5)c4)[nH]c3nc2=O)cc1` [Compound 61], the “E. coli ATCC25922 MIC” value is given as “+ (a “+” indicates that the compound has an MIC value of 16 micrograms/ml or less)”.
Take `NCCCCc1cc(Cl)c(Cl)c(-c2cc3cn(-c4ccc(CNCCCN=C(N)N)cc4)c(=O)nc3[nH]2)c1` [Compound 62]: the “E. coli ATCC25922 MIC” value was “+ (a “+” indicates that the compound has an MIC value of 16 micrograms/ml or less)”.
For `Cc1cc(CCCCN)cc(-c2cc3cn(-c4ccc(CNCCCN=C(N)N)cc4)c(=O)nc3[nH]2)c1Cl` [Compound 63], the “E. coli ATCC25922 MIC” value was “+ (a “+” indicates that the compound has an MIC value of 16 micrograms/ml or less)”.
In the case of `NCCCCc1cc(-c2cc3cn(-c4ccc(CNCCCN=C(N)N)cc4)c(=O)nc3[nH]2)c(Cl)c(C(F)(F)F)c1` [Compound 64], the “E. coli ATCC25922 MIC” value is on record as “+ (a “+” indicates that the compound has an MIC value of 16 micrograms/ml or less)”.
For the compound `NCCCCc1cc(OC(F)(F)F)c(Cl)c(-c2cc3cn(-c4ccc(CNCCCN=C(N)N)cc4)c(=O)nc3[nH]2)c1` [Compound 65], the “E. coli ATCC25922 MIC” value is listed as “+ (a “+” indicates that the compound has an MIC value of 16 micrograms/ml or less)”.
For `NC(N)=NCCCNCc1ccc(-n2cc3cc(-c4cccc(CCCO)c4)[nH]c3nc2=O)cc1` [Compound 66], the “E. coli ATCC25922 MIC” value is on record as “− (a “−” indicates that the compound has an MIC value greater than 16 micrograms/ml)”.
Regarding `C[C@H](NCCCNC(=N)N)c1ccc(-n2cc3cc(-c4cc(CCCCN)cc(F)c4Cl)[nH]c3nc2=O)cc1` [Compound 67], the “E. coli ATCC25922 MIC” value was “+ (a “+” indicates that the compound has an MIC value of 16 micrograms/ml or less)”.
For `NCCCCc1cc(SC(F)(F)F)cc(-c2cc3cn(-c4ccc(CNCCCN=C(N)N)c(F)c4)c(=O)nc3[nH]2)c1` [Compound 68], the “E. coli ATCC25922 MIC” value is “+ (a “+” indicates that the compound has an MIC value of 16 micrograms/ml or less)”.
